# Source: ChEMBL document CHEMBL1275409, “Antimicrobial-resistant pathogens in intensive care units in Canada: results of the Canadian National Intensive Care Unit (CAN-ICU) study, 2005-2006” (2008)
# Tests used:
# Format in all cases: functional
# Enterococcus sp. [1] = assay: Antimicrobial activity against vancomycin-resistant Enterococcus sp. isolated from ICU patient respiratory tract assessed as resistant isolates by broth microdilution method
# Pseudomonas aeruginosa [2] = assay: Antimicrobial activity against carbapenem-resistant Pseudomonas aeruginosa assessed as resistant isolates by broth microdilution method
# [3] = tested on: Staphylococcus epidermidis; assay: Antimicrobial activity against methicillin-resistant Staphylococcus epidermidis isolated from ICU patient wound assessed as resistant isolates by broth microdilution method
# [4] = tested on: Staphylococcus epidermidis; assay: Antimicrobial activity against methicillin-susceptible Staphylococcus epidermidis assessed as resistant isolates by broth microdilution method
# Enterobacter cloacae [5] = assay: Antimicrobial activity against carbapenem-resistant Enterobacter cloacae assessed as resistant isolates by broth microdilution method
# Staphylococcus aureus [6] = assay: Antimicrobial activity against methicillin-resistant Staphylococcus aureus isolated from ICU patient respiratory tract assessed as resistant isolates by broth microdilution method
# Enterococcus sp. [7] = assay: Antimicrobial activity against vancomycin-resistant Enterococcus sp. isolated from ICU patient wound assessed as resistant isolates by broth microdilution method
# Streptococcus pneumoniae [8] = assay: Antimicrobial activity against penicillin-resistant Streptococcus pneumoniae isolated from ICU patient respiratory tract assessed as resistant isolates by broth microdilution method
# Pseudomonas aeruginosa [9] = assay: Antimicrobial activity against carbapenem-resistant Pseudomonas aeruginosa isolated from ICU patient wound assessed as resistant isolates by broth microdilution method
# [10] = tested on: Staphylococcus epidermidis; assay: Antimicrobial activity against methicillin-susceptible Staphylococcus epidermidis isolated from ICU patient blood assessed as resistant isolates by broth microdilution method
# Streptococcus pneumoniae [11] = assay: Antimicrobial activity against penicillin-resistant Streptococcus pneumoniae assessed as resistant isolates by broth microdilution method
# Klebsiella pneumoniae [12] = assay: Antimicrobial activity against ESBL producing Klebsiella pneumoniae assessed as resistant isolates by broth microdilution method
# Haemophilus influenzae [13] = assay: Antimicrobial activity against Haemophilus influenzae isolated from ICU patient blood assessed as resistant isolates by broth microdilution method
# Enterococcus sp. [14] = assay: Antimicrobial activity against vancomycin-resistant Enterococcus sp. assessed as resistant isolates by broth microdilution method
# Haemophilus influenzae [15] = assay: Antimicrobial activity against Haemophilus influenzae isolated from ICU patient wound assessed as resistant isolates by broth microdilution method
# [16] = tested on: Staphylococcus epidermidis; assay: Antimicrobial activity against methicillin-resistant Staphylococcus epidermidis assessed as resistant isolates by broth microdilution method
# Pseudomonas aeruginosa [17] = assay: Antimicrobial activity against carbapenem-resistant Pseudomonas aeruginosa isolated from ICU patient blood assessed as resistant isolates by broth microdilution method
# Haemophilus influenzae [18] = assay: Antimicrobial activity against Haemophilus influenzae assessed as resistant isolates by broth microdilution method
# Klebsiella pneumoniae [19] = assay: Antimicrobial activity against ESBL producing Klebsiella pneumoniae isolated from ICU patient respiratory tract assessed as resistant isolates by broth microdilution method
# [20] = tested on: Staphylococcus epidermidis; assay: Antimicrobial activity against methicillin-susceptible Staphylococcus epidermidis isolated from ICU patient urine assessed as resistant isolates by broth microdilution method
# Pseudomonas aeruginosa [21] = assay: Antimicrobial activity against carbapenem-resistant Pseudomonas aeruginosa isolated from ICU patient urine assessed as resistant isolates by broth microdilution method
# Escherichia coli [22] = assay: Antimicrobial activity against CTX-M ESBL producing Escherichia coli assessed as resistant isolates by broth microdilution method
# Enterobacter cloacae [23] = assay: Antimicrobial activity against carbapenem-resistant Enterobacter cloacae isolated from ICU patient blood assessed as resistant isolates by broth microdilution method
# Klebsiella pneumoniae [24] = assay: Antimicrobial activity against ESBL producing Klebsiella pneumoniae isolated from ICU patient urine assessed as resistant isolates by broth microdilution method
# Pseudomonas aeruginosa [25] = assay: Antimicrobial activity against carbapenem-resistant Pseudomonas aeruginosa isolated from ICU patient respiratory tract assessed as resistant isolates by broth microdilution method
# Staphylococcus aureus [26] = assay: Antimicrobial activity against methicillin-susceptible Staphylococcus aureus isolated from ICU patient wound assessed as resistant isolates by broth microdilution method
# [27] = tested on: Staphylococcus epidermidis; assay: Antimicrobial activity against methicillin-susceptible Staphylococcus epidermidis isolated from ICU patient wound assessed as resistant isolates by broth microdilution method
# Enterococcus sp. [28] = assay: Antimicrobial activity against vancomycin-resistant Enterococcus sp. isolated from ICU patient blood assessed as resistant isolates by broth microdilution method
# Escherichia coli [29] = assay: Antimicrobial activity against CTX-M ESBL producing Escherichia coli isolated from ICU patient blood assessed as resistant isolates by broth microdilution method
# Staphylococcus aureus [30] = assay: Antimicrobial activity against methicillin-resistant Staphylococcus aureus isolated from ICU patient blood assessed as resistant isolates by broth microdilution method
# Escherichia coli [31] = assay: Antimicrobial activity against CTX-M ESBL producing Escherichia coli isolated from ICU patient urine assessed as resistant isolates by broth microdilution method
# Staphylococcus aureus [32] = assay: Antimicrobial activity against methicillin-susceptible Staphylococcus aureus isolated from ICU patient urine assessed as resistant isolates by broth microdilution method
# Enterococcus sp. [33] = assay: Antimicrobial activity against vancomycin-resistant Enterococcus sp. isolated from ICU patient urine assessed as resistant isolates by broth microdilution method
# Escherichia coli [34] = assay: Antimicrobial activity against CTX-M ESBL producing Escherichia coli isolated from ICU patient respiratory tract assessed as resistant isolates by broth microdilution method
# Staphylococcus aureus [35] = assay: Antimicrobial activity against methicillin-resistant Staphylococcus aureus isolated from ICU patient urine assessed as resistant isolates by broth microdilution method
# Enterobacter cloacae [36] = assay: Antimicrobial activity against carbapenem-resistant Enterobacter cloacae isolated from ICU patient urine assessed as resistant isolates by broth microdilution method
# Klebsiella pneumoniae [37] = assay: Antimicrobial activity against ESBL producing Klebsiella pneumoniae isolated from ICU patient blood assessed as resistant isolates by broth microdilution method
# Staphylococcus aureus [38] = assay: Antimicrobial activity against methicillin-susceptible Staphylococcus aureus isolated from ICU patient blood assessed as resistant isolates by broth microdilution method
# Staphylococcus aureus [39] = assay: Antimicrobial activity against methicillin-resistant Staphylococcus aureus isolated from ICU patient wound assessed as resistant isolates by broth microdilution method
# Staphylococcus aureus [40] = assay: Antimicrobial activity against methicillin-susceptible Staphylococcus aureus assessed as resistant isolates by broth microdilution method
# [41] = tested on: Staphylococcus epidermidis; assay: Antimicrobial activity against methicillin-resistant Staphylococcus epidermidis isolated from ICU patient urine assessed as resistant isolates by broth microdilution method
# Haemophilus influenzae [42] = assay: Antimicrobial activity against Haemophilus influenzae isolated from ICU patient respiratory tract assessed as resistant isolates by broth microdilution method
# Staphylococcus aureus [43] = assay: Antimicrobial activity against methicillin-resistant Staphylococcus aureus assessed as resistant isolates by broth microdilution method
# Staphylococcus aureus [44] = assay: Antimicrobial activity against methicillin-susceptible Staphylococcus aureus isolated from ICU patient respiratory tract assessed as resistant isolates by broth microdilution method
# Escherichia coli [45] = assay: Antimicrobial activity against CTX-M ESBL producing Escherichia coli isolated from ICU patient wound assessed as resistant isolates by broth microdilution method
# Enterobacter cloacae [46] = assay: Antimicrobial activity against carbapenem-resistant Enterobacter cloacae isolated from ICU patient wound assessed as resistant isolates by broth microdilution method
# Streptococcus pneumoniae [47] = assay: Antimicrobial activity against penicillin-resistant Streptococcus pneumoniae isolated from ICU patient blood assessed as resistant isolates by broth microdilution method
# Streptococcus pneumoniae [48] = assay: Antimicrobial activity against penicillin-resistant Streptococcus pneumoniae isolated from ICU patient wound assessed as resistant isolates by broth microdilution method
# [49] = tested on: Staphylococcus epidermidis; assay: Antimicrobial activity against methicillin-susceptible Staphylococcus epidermidis isolated from ICU patient respiratory tract assessed as resistant isolates by broth microdilution method
# [50] = tested on: Staphylococcus epidermidis; assay: Antimicrobial activity against methicillin-resistant Staphylococcus epidermidis isolated from ICU patient blood assessed as resistant isolates by broth microdilution method
# Enterobacter cloacae [51] = assay: Antimicrobial activity against carbapenem-resistant Enterobacter cloacae isolated from ICU patient respiratory tract assessed as resistant isolates by broth microdilution method
# Klebsiella pneumoniae [52] = assay: Antimicrobial activity against ESBL producing Klebsiella pneumoniae isolated from ICU patient wound assessed as resistant isolates by broth microdilution method
smiles,measurement,setting,value
C[C@H]1COc2c(N3CCN(C)CC3)c(F)cc3c(=O)c(C(=O)O)cn1c23.C[C@H]1COc2c(N3CCN(C)CC3)c(F)cc3c(=O)c(C(=O)O)cn1c23.O [LEVOFLOXACIN],Activity,Enterococcus sp. [1],46.7%
same,Activity,Pseudomonas aeruginosa [2],3.6%
same,Activity,[3],100%
same,Activity,[4],52.3%
same,Activity,Enterobacter cloacae [5],1.8%
same,Activity,Staphylococcus aureus [6],91.5%
same,Activity,Enterococcus sp. [7],45.8%
same,Activity,Streptococcus pneumoniae [8],2.1%
same,Activity,Pseudomonas aeruginosa [9],11.5%
same,Activity,[10],42.9%
same,Activity,Streptococcus pneumoniae [11],1.7%
same,Activity,Klebsiella pneumoniae [12],25.5%
same,Activity,Haemophilus influenzae [13],0%
same,Activity,Enterococcus sp. [14],51%
same,Activity,Haemophilus influenzae [15],0%
same,Activity,[16],100%
same,Activity,Pseudomonas aeruginosa [17],3.9%
same,Activity,Haemophilus influenzae [18],0%
same,Activity,Klebsiella pneumoniae [19],21.5%
same,Activity,[20],80%
same,Activity,Pseudomonas aeruginosa [21],0%
same,Activity,Escherichia coli [22],21.1%
same,Activity,Enterobacter cloacae [23],4.2%
same,Activity,Klebsiella pneumoniae [24],40%
same,Activity,Pseudomonas aeruginosa [25],3.3%
same,Activity,Staphylococcus aureus [26],7.1%
same,Activity,[27],66.7%
same,Activity,Enterococcus sp. [28],56.8%
same,Activity,Escherichia coli [29],23.3%
same,Activity,Staphylococcus aureus [30],91.8%
same,Activity,Escherichia coli [31],19.8%
same,Activity,Staphylococcus aureus [32],20%
same,Activity,Enterococcus sp. [33],52%
same,Activity,Escherichia coli [34],21.3%
same,Activity,Staphylococcus aureus [35],100%
same,Activity,Enterobacter cloacae [36],6.3%
same,Activity,Klebsiella pneumoniae [37],24.2%
same,Activity,Staphylococcus aureus [38],6.9%
same,Activity,Staphylococcus aureus [39],92.6%
same,Activity,Staphylococcus aureus [40],7.3%
same,Activity,[41],100%
same,Activity,Haemophilus influenzae [42],0%
same,Activity,Staphylococcus aureus [43],91.8%
same,Activity,Staphylococcus aureus [44],6.9%
same,Activity,Escherichia coli [45],24.1%
same,Activity,Enterobacter cloacae [46],5.9%
same,Activity,Streptococcus pneumoniae [47],0%
same,Activity,Streptococcus pneumoniae [48],0%
same,Activity,[49],100%
same,Activity,[50],100%
same,Activity,Enterobacter cloacae [51],0%
C[C@@H](O)[C@H]1C(=O)N2C(C(=O)O)=C(S[C@@H]3CN[C@H](C(=O)N(C)C)C3)[C@H](C)[C@H]12 [MEROPENEM],Activity,Pseudomonas aeruginosa [2],0%
same,Activity,[3],100%
same,Activity,[4],9.3%
same,Activity,Enterobacter cloacae [5],0%
same,Activity,Staphylococcus aureus [6],100%
same,Activity,Streptococcus pneumoniae [8],0.5%
same,Activity,Pseudomonas aeruginosa [9],0%
same,Activity,[10],1.8%
same,Activity,Streptococcus pneumoniae [11],0.4%
same,Activity,Klebsiella pneumoniae [12],13.6%
same,Activity,Haemophilus influenzae [13],0%
same,Activity,Haemophilus influenzae [15],0%
same,Activity,[16],100%
same,Activity,Klebsiella pneumoniae [52],18.9%
same,Activity,Pseudomonas aeruginosa [17],0%
same,Activity,Haemophilus influenzae [18],0%
same,Activity,Klebsiella pneumoniae [19],12.5%
same,Activity,[20],0%
same,Activity,Pseudomonas aeruginosa [21],0%
same,Activity,Escherichia coli [22],0%
same,Activity,Enterobacter cloacae [23],0%
same,Activity,Klebsiella pneumoniae [24],17.8%
same,Activity,Pseudomonas aeruginosa [25],0%
same,Activity,Staphylococcus aureus [26],0%
same,Activity,[27],29.2%
same,Activity,Escherichia coli [29],0%
same,Activity,Staphylococcus aureus [30],100%
same,Activity,Escherichia coli [31],0%
same,Activity,Staphylococcus aureus [32],0%
same,Activity,Escherichia coli [34],0%
same,Activity,Staphylococcus aureus [35],100%
same,Activity,Enterobacter cloacae [36],0%
same,Activity,Klebsiella pneumoniae [37],9.1%
same,Activity,Staphylococcus aureus [38],0%
same,Activity,Staphylococcus aureus [39],100%
same,Activity,Staphylococcus aureus [40],0%
same,Activity,[41],100%
same,Activity,Haemophilus influenzae [42],0%
same,Activity,Staphylococcus aureus [43],100%
same,Activity,Staphylococcus aureus [44],0%
same,Activity,Escherichia coli [45],0%
same,Activity,Enterobacter cloacae [46],0%
same,Activity,Streptococcus pneumoniae [47],0%
same,Activity,Streptococcus pneumoniae [48],0%
same,Activity,[49],0%
same,Activity,[50],100%
same,Activity,Enterobacter cloacae [51],0%
